Residues, ends and D or L forms follow the SMILES beside them. *: point of attachment. Cbz = O=C(OCc1ccccc1)*; CH2F = FC*

What all share (assay type): cell-based
Test [1] deals with megakaryocytes (CD41 cells). Put plainly: Megakaryocyte ploidy by flow cytometry after induction of polyploidization. Particulars: day 11; treated once on day 8; latrunculin 10 μg/ml or Y27632 10 μM; controls less than 10%; p=0.007, n=3. How it is done:
(§1) At the completion of the megakaryocyte differentiation stage on day 8, megakaryocytes were stimulated to undergo polyploidization by adding either the actin polymerization inhibitor, latrunculin (Santa Cruz Biotechnologies, Dallas, Tex.), at a final concentration of 10 μg/ml, or the Rho-kinase inhibitor, Y27632 (Sigma Aldrich, St. Louis, Mo.), at 10 μM, and then culturing the cells for an additional 3 or 4 days.
Megakaryocyte ploidy was analyzed on day 11 of culture. Cells were labeled with Alexa 647-conjugated anti-CD41 antibody, incubated for 20 min on ice, fixed with 4% paraformaldehyde (Fisher Scientific) for 15 minutes and then washed with PBS. Next, cells were permeabilized with methanol 75% (Sigma Aldrich) for 1 hour at 4° C. and washed with PBS+BSA, 2%+NP40, 0.05% (Fischer Scientific) solution. Finally cells were treated with Propidium Iodide/RNase solution (Becton Dickinson) and incubated for 30 minutes in the dark at room temperature before flow cytometry analysis.
Background: In flow cytometry, cells or beads pass a laser one at a time.

For the next test, the system named is megakaryocytes. Put plainly: Proplatelet formation quantification (grid strategy). Conditions: day 11; treated on day 8; p=0.02, n=3. On the procedure:
as §1
Proplatelet formation was quantified on day 11 of culture using a grid strategy, as previously described by M. P. Avanzi et al., Rho kinase inhibition drives megakaryocyte polyploidization and proplatelet formation through MYC and NFE2 downregulation, 164(6) BR. J HAEMATOL. 867 (March 2014). Briefly, using an inverted light microscope (Olympus CKX41) 10 random-field images were acquired at 40× magnification from each well. All megakaryocytes present on each field were counted. A counting grid with 25 μm squares was used to enumerate the number of proplatelet processes. Each proplatelet segment inside each square was counted and the sum of all segments in 10 random field images (40× magnification) was used for comparison. From these numbers, a measure of proplatelet density per cell per unit area was generated and used to compare the results of different culture conditions.

For another test, the system named is UCB derived CD34 cells. Nature of the test: Expansion of UCB derived CD34 enriched cells in serum-free suspension culture with reagents. Particulars: control mean 40-fold, n=3; for CD34 fold expansion (mean): day 7 of culture, SR-1 0.75 μM, TEPA 5 μM, zVADfmk 100 nM, SCF, TPO, FLT3-ligand 50 ng/ml. On the procedure:
Umbilical cord blood units not suitable for clinical use were obtained from the New York Blood Center National Cord Blood Bank, where they were collected after informed consent in accord with the Declaration of Helsinki. Isolation of umbilical cord blood CD34 cells was performed using either a positive selection or a negative selection method. The positive selection method used has been described in G. Mattia et al., Different ploidy levels of megakaryocytes generated from peripheral or cord blood CD34+ cells are correlated with different levels of platelet release, 99(3) BLOOD 888 (February 2002). Briefly, mononuclear cells were layered on a Ficoll-Hypaque gradient (GE Healthcare, Barrington, Ill.), washed twice with phosphate-buffered saline (PBS) (Life Technologies) supplemented with 5% fetal bovine serum (FBS) (Life Technologies). To purify CD34 cells, the mononuclear selection fraction was subject to two cycles of immunomagnetic bead separation using a MINIMACS CD34 isolation kit (Miltenyi Biotech, Auburn, Calif.), according to manufacturer's recommendations. The purity of the sample ranged from 70% to 90% CD34 positive and was approximately 30% CD41 positive based on flow cytometry analysis.
The negative selection method was based on previously described methods where umbilical cord blood-derived CD34 cells were enriched by a negative selection method with the use of ROSETTESEP (Stem Cell Technologies, Vancouver, Canada). M. P. Avanzi et al., Optimizing megakaryocyte polyploidization by targeting multiple pathways of cytokinesis, 52(11) TRANSFUSION 2406 (November 2012). Briefly, cells were washed with phosphate buffered saline (PBS, Life Technologies) and incubated with ROSETTESEP reagent for 10 min at room temperature. Next, cells were layered on a Ficoll-Hypaque gradient, washed twice with phosphate-buffered saline. The final product was approximately 20% to 30% CD34 positive and 30% CD41 positive.
UCB derived CD34 enriched cells were plated at a density of 1×10^4 per well (24 well plate) in suspension culture and combined with one of the following reagents: STEM REGENIN-1 (StemCell Technologies, Vancouver, BC), 0.75 μM; copper chelator tetraethylenepentamine, 5 μM (TEPA) (Sigma Aldrich, St Louis, Mo.); or zVADfmk, 100 nM (Abcam, Cambridge, Mass.). Reagents were added with culture medium and cytokine cocktail on day 0, 4, 7 and 10 of culture. Additionally, in separate experiments, CD34 enriched cells were expanded on NANEX nanofiber membranes (Arteriocyte, Cleveland Ohio). […]
All flow cytometry experiments where performed with a BD FACS LSR FORTESSA machine (Becton Dickinson, San Jose, Calif.) and analyzed with BD FACSDIVA software (Becton Dickinson). […] Labeled cells were then analyzed and counted.

Test [2] concerns platelets collected from the bioreactor. Put plainly: Platelet surface expression of P-selectin after activation, flow cytometry. Conditions: PMA 10 μg/mL, 15 min, room temperature; 25% at baseline. On the procedure: Platelets collected from the bioreactor were tested for their function based on the externalization of P-Selectin after activation with phorbol myristate acetate (PMA) using flow cytometry. Platelets were collected in eppendorf tubes, labeled with Alexa 647-conjugated anti-CD41 antibody, PE-conjugated anti-CD-62P (Becton Dickinson) and a live cell stain, Calcein AM (Sigma-Aldrich) for 15 min at room temperature. Next, platelets were activated using PMA (Sigma Aldrich) 10 μg/mL for 15 min at room temperature. Cells were then analyzed by flow cytometry for P-Selectin externalization. Anti-Y1-PE (Becton Dickinson) was used as an isotype control.

In the case of `C[C@@H](N)[C@H]1CC[C@H](C(=O)Nc2ccncc2)CC1` [Y27632], the “Proportion of megakaryocytes with ploidy >8” value in test [1] came to 30%. In addition, the “Proplatelets generated compared with control megakaryocytes” value in the test on megakaryocytes is listed as “significantly more”. On to `CC(C)n1cnc2c(NCCc3ccc(O)cc3)nc(-c3csc4ccccc34)nc21` [SR-1, stem regenin-1], for which the “CD34 fold expansion versus control culture (significance)” value in the test with UCB derived CD34 cells (day 7) is given as “not significantly different”. For the same compound, the “CD34 fold expansion (mean)” value with UCB derived CD34 cells came to 85 fold. As to latrunculin, the “Proportion of megakaryocytes with ploidy >8” value in test [1] was 30%. Moreover, the “Proplatelets generated compared with control megakaryocytes” value in the test on megakaryocytes is “significantly more”. In the case of `COC(=O)CC(NC(=O)C(C)NC(=O)C(NC(=O)OCc1ccccc1)C(C)C)C(=O)CF` (stereo not drawn) [zVADfmk, benzyloxycarbonyl-Val-Ala-Asp (OMe) fluoromethylketone] (Cbz-Val-Ala-Asp(OMe)-CH2F; configuration not given here), the “CD34 fold expansion (mean)” value in the test with UCB derived CD34 cells amounted to 25 fold. `CCCCCCCCCCCCCC(=O)O[C@@H]1[C@@H](C)[C@@]2(O)[C@@H](C=C(CO)C[C@]3(O)C(=O)C(C)=C[C@@H]23)[C@@H]2C(C)(C)[C@]12OC(C)=O` [PMA, phorbol 12-myristate 13-acetate]: the “Particles expressing p-selectin after stimulation” value in test [2] is 65%. Take `NCCNCCNCCNCCN` [TEPA, tetraethylenepentamine]: in the test with UCB derived CD34 cells, the “CD34 fold expansion (mean)” value is given as 19 fold.

(Values after US9803164B2, “Megakaryocyte and platelet production from stem cells” (priority 2011, dated 2017).)
